This is an account of results in US20240158446A1, “CYCLIC COMPOUND HAVING SELECTIVE INHIBITORY ACTION ON KRAS OVER HRAS AND NRAS” (CHUGAI SEIYAKU KABUSHIKI KAISHA, priority 2021, published 2024).

The Kd is the concentration at which binding is half-saturated.

In assay [1] the target is GDP-bound NRAS wild-type protein (Homo sapiens, UniProt P01111). The experiment in a line: Binding to NRAS by surface plasmon resonance (SPR), Single Cycle Kinetics. The conditions noted are these: ratio of KD for GDP-bound NRAS wild-type protein to KD for KRAS, SPR. For orientation: SPR reads the build-up and loss of mass on a sensor chip optically.
Assay [2] deals with GDP-bound KRAS wild-type protein (Homo sapiens, UniProt P01116). Nature of the assay: Binding to KRAS by surface plasmon resonance (SPR), Single Cycle Kinetics. The conditions noted are these: SPR, Single Cycle Kinetics, GDP-bound KRAS wild-type protein; read-out: KRAS KD.
The target of assay [3] is GDP-bound HRAS wild-type protein (Homo sapiens, UniProt P01112). The experiment in a line: Binding to HRAS by surface plasmon resonance (SPR), Single Cycle Kinetics. The following applies: ratio of KD for GDP-bound HRAS wild-type protein to KD for KRAS, SPR.
The subject of assay [4] is human lung cancer strain NCI-H441. Nature of the assay: cells. The conditions noted are these: NCI-H441, 96 h, read-out: NCI-H441 IC50 (nM), NCI-H441 cell proliferation, 4 days, CellTiter-Glo.
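For IC50 in this document: cell proliferation inhibition after four days measured by CellTiter-Glo.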

Chain of GDP-bound KRAS wild-type protein (P01116 whole entry): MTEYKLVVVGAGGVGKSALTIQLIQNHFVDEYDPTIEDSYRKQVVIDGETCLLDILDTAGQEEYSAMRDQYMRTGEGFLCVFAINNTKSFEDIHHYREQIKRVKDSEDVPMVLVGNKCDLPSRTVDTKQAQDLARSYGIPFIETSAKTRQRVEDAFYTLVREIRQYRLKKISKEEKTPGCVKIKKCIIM
Chain of GDP-bound NRAS wild-type protein (P01111 whole entry): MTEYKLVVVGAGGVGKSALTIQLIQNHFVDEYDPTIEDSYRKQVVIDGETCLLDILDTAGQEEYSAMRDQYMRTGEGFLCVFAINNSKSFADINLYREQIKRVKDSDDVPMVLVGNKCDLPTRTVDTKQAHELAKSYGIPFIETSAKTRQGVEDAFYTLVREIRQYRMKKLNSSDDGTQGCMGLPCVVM
Chain of GDP-bound HRAS wild-type protein (P01112 whole entry): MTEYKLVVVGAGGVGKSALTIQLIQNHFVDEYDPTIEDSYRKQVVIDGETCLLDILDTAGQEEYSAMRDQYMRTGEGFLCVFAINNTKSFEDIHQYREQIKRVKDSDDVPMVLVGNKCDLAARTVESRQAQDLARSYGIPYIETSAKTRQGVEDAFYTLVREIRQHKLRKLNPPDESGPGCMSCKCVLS

For `CC[C@H](C)[C@@H]1NC(=O)[C@H](CC)N(C)C(=O)C[C@@H](C(=O)N(C)C)N(C)C(=O)[C@H](C2CCCC2)N(C)C(=O)C2(CC(C)(C)C2)NC(=O)[C@@H]2C[C@H](C)CN2C(=O)[C@H](CCc2ccc(C(F)(F)F)c(Cl)c2)NC(=O)CN(C)C(=O)[C@H](Cc2ccc(C)cc2)N2CC/C=C\C[C@@H](C2=O)N(C)C(=O)CN(C)C1=O` [PP1844], in assay [1], the “NRAS/KRAS (KD ratio)” value was “A (a compound having 10 or more and less than 20 is denoted as A)”. Further, the Kd in assay [2] is 70 pM. Moreover, the “HRAS/KRAS (KD ratio)” value in assay [3] was “B (a compound having 3 or more and less than 10 is denoted as B)”. Moreover, in assay [4], the IC50 was determined as 12.3 nM.

Take `CC[C@H](C)[C@@H]1NC(=O)[C@H](CC(C)C)N(C)C(=O)C[C@@H](C(=O)N(C)C)N(C)C(=O)[C@H](C2CCCC2)N(C)C(=O)C2(CCC2)NC(=O)[C@@H]2C[C@@H](C)CN2C(=O)[C@H](CCc2ccc(C(F)(F)F)c(Cl)c2)NC(=O)CN(C)C(=O)[C@H](Cc2ccc(C)cc2)N2CC/C=C\C[C@@H](C2=O)N(C)C(=O)CN(C)C1=O` [PP1854]: the “NRAS/KRAS (KD ratio)” value in assay [1] is “A (a compound having 10 or more and less than 20 is denoted as A)”. The Kd in assay [2] amounted to 96 pM. In assay [3], the “HRAS/KRAS (KD ratio)” value is “A (a compound having 10 or more and less than 20 is denoted as A)”. The IC50 in assay [4] worked out at 5.2 nM.

`CC[C@H](C)[C@@H]1NC(=O)[C@H](CC)N(C)C(=O)C[C@@H](C(=O)N(C)CC)N(C)C(=O)[C@H](C2CCCC2)N(C)C(=O)C2(CCC2)NC(=O)[C@@H]2C[C@@H](C)CN2C(=O)[C@H](CCc2ccc(C(F)(F)F)c(OC)c2)NC(=O)CN(C)C(=O)[C@H](Cc2ccc(C)cc2)N2CC/C=C\C[C@@H](C2=O)N(C)C(=O)CN(C)C1=O` [PP1855]: in assay [1], the “NRAS/KRAS (KD ratio)” value was “AA (a compound having 20 or more is denoted as AA)”. The Kd in assay [2] was determined as 190 pM. In assay [3], the “HRAS/KRAS (KD ratio)” value was “A (a compound having 10 or more and less than 20 is denoted as A)”. Moreover, in assay [4], the IC50 came out at 17.7 nM.

With `CC[C@H](C)[C@@H]1NC(=O)[C@H](CC)N(C)C(=O)C[C@@H](C(=O)N(C)C)N(C)C(=O)[C@H](C2CCCC2)N(C)C(=O)C2(CC(C)(C)C2)NC(=O)[C@@H]2C[C@H](C)CN2C(=O)[C@H](CCc2cc(F)c(C(F)(F)F)c(F)c2)NC(=O)CN(C)C(=O)[C@H](Cc2ccc(C)cc2)N2CC/C=C\C[C@@H](C2=O)N(C)C(=O)CN(C)C1=O` [PP1856], in assay [1], the “NRAS/KRAS (KD ratio)” value is “A (a compound having 10 or more and less than 20 is denoted as A)”. For the same molecule, in assay [2], the Kd amounted to 110 pM. The “HRAS/KRAS (KD ratio)” value in assay [3] was “A (a compound having 10 or more and less than 20 is denoted as A)”. In addition, the IC50 in assay [4] was determined as 1.4 nM.

As for `CC[C@H](C)[C@@H]1NC(=O)[C@H](CC2CC2)N(C)C(=O)C[C@@H](C(=O)N(C)C)N(C)C(=O)[C@H](C2CCCC2)N(C)C(=O)C2(CCC2)NC(=O)[C@@H]2C[C@@H](C)CN2C(=O)[C@H](CCc2ccc(C(F)(F)F)c(OC)c2)NC(=O)CN(C)C(=O)[C@H](Cc2ccc(C)cc2)N2CC/C=C\C[C@@H](C2=O)N(C)C(=O)CN(C)C1=O` [PP1863], the “NRAS/KRAS (KD ratio)” value in assay [1] was “A (a compound having 10 or more and less than 20 is denoted as A)”. Also, in assay [2], the Kd was determined as 130 pM. In assay [3], the “HRAS/KRAS (KD ratio)” value is “A (a compound having 10 or more and less than 20 is denoted as A)”. The IC50 in assay [4] came to 88.8 nM.

As to `CC[C@H](C)[C@@H]1NC(=O)[C@H](CC(C)C)N(C)C(=O)C[C@@H](C(=O)N(C)C)N(C)C(=O)[C@H](C2CCCC2)N(C)C(=O)C2(CCC2)NC(=O)[C@@H]2C[C@H](C)CN2C(=O)[C@H](CCc2cc(F)c(C(F)(F)F)c(F)c2)NC(=O)CN(C)C(=O)[C@H](Cc2ccc(C)cc2)N2CC/C=C\C[C@@H](C2=O)N(C)C(=O)CN(C)C1=O` [PP1864], the “NRAS/KRAS (KD ratio)” value in assay [1] is “A (a compound having 10 or more and less than 20 is denoted as A)”. In addition, the Kd in assay [2] came to 64 pM. In assay [3], the “HRAS/KRAS (KD ratio)” value is “B (a compound having 3 or more and less than 10 is denoted as B)”. Besides, in assay [4], the IC50 stood at 10.2 nM.

Take `CC[C@H](C)[C@@H]1NC(=O)[C@H](CC(C)C)N(C)C(=O)C[C@@H](C(=O)N(C)C)N(C)C(=O)[C@H](C2CCCC2)N(C)C(=O)C2(CCC2)NC(=O)[C@@H]2C[C@@H](C)CN2C(=O)[C@H](CCc2cc(F)c(C(F)(F)F)c(F)c2)NC(=O)CN(C)C(=O)[C@H](Cc2ccc(C)cc2)N2CC/C=C\C[C@@H](C2=O)N(C)C(=O)CN(C)C1=O` [PP1866]: the “NRAS/KRAS (KD ratio)” value in assay [1] was “A (a compound having 10 or more and less than 20 is denoted as A)”. Moreover, the Kd in assay [2] came to 93 pM. Moreover, the “HRAS/KRAS (KD ratio)” value in assay [3] is “B (a compound having 3 or more and less than 10 is denoted as B)”. Also, in assay [4], the IC50 was 11.1 nM.

Take `CC[C@H](C)[C@@H]1NC(=O)[C@H](CC(C)C)N(C)C(=O)C[C@@H](C(=O)N(C)C)N(C)C(=O)[C@H](C2CCCC2)N(C)C(=O)C2(CCC2)NC(=O)[C@@H]2C[C@@H](C)CN2C(=O)[C@H](CCc2ccc(C(F)(F)F)c(OC)c2)NC(=O)CN(C)C(=O)[C@H](Cc2ccc(C)cc2)N2CC/C=C\C[C@@H](C2=O)N(C)C(=O)CN(C)C1=O` [PP1867]: the “NRAS/KRAS (KD ratio)” value in assay [1] was “A (a compound having 10 or more and less than 20 is denoted as A)”. For the same molecule, the Kd in assay [2] was found to be 170 pM. The “HRAS/KRAS (KD ratio)” value in assay [3] is “B (a compound having 3 or more and less than 10 is denoted as B)”. Moreover, the IC50 in assay [4] is 47.8 nM.

Consider `CC[C@H](C)[C@@H]1NC(=O)[C@H](CC)N(C)C(=O)C[C@@H](C(=O)N(C)CC)N(C)C(=O)[C@H](C2CCCC2)N(C)C(=O)C2(CC(C)(C)C2)NC(=O)[C@@H]2C[C@H](C)CN2C(=O)[C@H](CCc2ccc(C(F)(F)F)c(OC)c2)NC(=O)CN(C)C(=O)[C@H](Cc2ccc(C)cc2)N2CC/C=C\C[C@@H](C2=O)N(C)C(=O)CN(C)C1=O` [PP1868], for which, in assay [1], the “NRAS/KRAS (KD ratio)” value was “A (a compound having 10 or more and less than 20 is denoted as A)”. For the same molecule, the Kd in assay [2] came to 87 pM. For the same molecule, the “HRAS/KRAS (KD ratio)” value in assay [3] was “B (a compound having 3 or more and less than 10 is denoted as B)”. Besides, the IC50 in assay [4] was determined as 10.7 nM.

On to `CCO[C@@H]1C[C@H]2C(=O)NC3(CCC3)C(=O)N(C)[C@@H](C3CCCC3)C(=O)N(C)[C@H](C(=O)N(C)CC)CC(=O)N(C)[C@@H](CC)C(=O)N[C@@H]([C@@H](C)CC)C(=O)N(C)CC(=O)N(C)[C@H]3C/C=C\CCN(C3=O)[C@@H](Cc3ccc(C)cc3)C(=O)N(C)CC(=O)N[C@@H](CCc3ccc(C(F)(F)F)c(OC)c3)C(=O)N2C1` [PP1869], for which the “NRAS/KRAS (KD ratio)” value in assay [1] is “A (a compound having 10 or more and less than 20 is denoted as A)”. Besides, in assay [2], the Kd is 130 pM. Besides, the “HRAS/KRAS (KD ratio)” value in assay [3] is “A (a compound having 10 or more and less than 20 is denoted as A)”. Besides, the IC50 in assay [4] worked out at 36.4 nM.

For the molecule `CC[C@H](C)[C@@H]1NC(=O)[C@H](CC)N(C)C(=O)C[C@@H](C(=O)N(C)CC)N(C)C(=O)[C@H](C2CCCC2)N(C)C(=O)C2(CC(C)(C)C2)NC(=O)[C@@H]2C[C@@H](C)CN2C(=O)[C@H](CCc2ccc(C(F)(F)F)c(OC)c2)NC(=O)CN(C)C(=O)[C@H](Cc2ccc(C)cc2)N2CC/C=C\C[C@@H](C2=O)N(C)C(=O)CN(C)C1=O` [PP1870], in assay [1], the “NRAS/KRAS (KD ratio)” value is “A (a compound having 10 or more and less than 20 is denoted as A)”. Further, the Kd in assay [2] was found to be 190 pM. In assay [3], the “HRAS/KRAS (KD ratio)” value was “A (a compound having 10 or more and less than 20 is denoted as A)”. In addition, in assay [4], the IC50 is 12.4 nM.

Regarding `CCC[C@H]1C(=O)N[C@@H]([C@@H](C)CC)C(=O)N(C)CC(=O)N(C)[C@H]2C/C=C\CCN(C2=O)[C@@H](Cc2ccc(C)cc2)C(=O)N(C)CC(=O)N[C@@H](CCc2ccc(C(F)(F)F)c(OC)c2)C(=O)N2C[C@H](OCC)C[C@H]2C(=O)NC2(CCC2)C(=O)N(C)[C@@H](C2CCCC2)C(=O)N(C)[C@H](C(=O)N(C)C)CC(=O)N1C` [PP1871], the “NRAS/KRAS (KD ratio)” value in assay [1] was “A (a compound having 10 or more and less than 20 is denoted as A)”. Further, the Kd in assay [2] was 99 pM. For the same molecule, in assay [3], the “HRAS/KRAS (KD ratio)” value was “A (a compound having 10 or more and less than 20 is denoted as A)”. For the same molecule, the IC50 in assay [4] came out at 13.1 nM.

Consider `CCO[C@@H]1C[C@H]2C(=O)NC3(CC(C)(C)C3)C(=O)N(C)[C@@H](C3CCCC3)C(=O)N(C)[C@H](C(=O)N(C)CC)CC(=O)N(C)[C@@H](CC)C(=O)N[C@@H]([C@@H](C)CC)C(=O)N(C)CC(=O)N(C)[C@H]3C/C=C\CCN(C3=O)[C@@H](Cc3ccc(C)cc3)C(=O)N(C)CC(=O)N[C@@H](CCc3ccc(C(F)(F)F)c(OC)c3)C(=O)N2C1` [PP1872], for which the “NRAS/KRAS (KD ratio)” value in assay [1] is “A (a compound having 10 or more and less than 20 is denoted as A)”. In addition, the Kd in assay [2] was found to be 120 pM. Further, the “HRAS/KRAS (KD ratio)” value in assay [3] was “A (a compound having 10 or more and less than 20 is denoted as A)”. Also, the IC50 in assay [4] was found to be 12.4 nM.

For the molecule `CCO[C@@H]1C[C@H]2C(=O)NC3(CC(C)(C)C3)C(=O)N(C)[C@@H](C3CCCC3)C(=O)N(C)[C@H](C(=O)N(C)C)CC(=O)N(C)[C@@H](CC)C(=O)N[C@@H]([C@@H](C)CC)C(=O)N(C)CC(=O)N(C)[C@H]3C/C=C\CCN(C3=O)[C@@H](Cc3ccc(C)cc3)C(=O)N(C)CC(=O)N[C@@H](CCc3ccc(C(F)(F)F)c(OC)c3)C(=O)N2C1` [PP1873], the “NRAS/KRAS (KD ratio)” value in assay [1] is “A (a compound having 10 or more and less than 20 is denoted as A)”. The Kd in assay [2] came out at 75 pM. In assay [3], the “HRAS/KRAS (KD ratio)” value is “B (a compound having 3 or more and less than 10 is denoted as B)”. Further, the IC50 in assay [4] worked out at 8.5 nM.
